Results taken from article PMC10714399, “Open Source Antibiotics: Simple Diarylimidazoles Are Potent against Methicillin-Resistant Staphylococcus aureus” (ACS Infectious Diseases, 2023).
≈ marks a conversion by molar mass, not a printed value.

tested on: Staphylococcus aureus NCTC 13373 (mecA-positive; methicillin-resistant); experiment: In vitro antibacterial activity, MIC (UCL School of Pharmacy assay), MRSA; assay type: cell-based; conditions: not given
Experimental: (§1) Staphylococcus aureus NCTC 13373 (mecA-positive; methicillin-resistant, NCTC 13373) was supplied by the National Collection of Type Cultures (NCTC), Public Health England, United Kingdom. Other organisms, S. aureus ATCC 25923 (methicillin-susceptible) and Enterococcus faecalis ATCC 51299 (vanA-positive; vancomycin-resistant), were obtained from the American Type Culture Collection (ATCC) via LGC Standards, UK. A suspension of each organism was prepared from an overnight plate culture (tryptone soya agar) in phosphate-buffered saline (PBS) and adjusted to an absorbance reading at 600 nm of 0.1, which is approximately equivalent to 1 × 10^8 colony-forming units (CFU) per mL. The cultures were further diluted 1:100 in isosensitest broth (Oxoid, United Kingdom) before 100 μL was used to inoculate each well of a 96-well plate that contained diluted samples of the OSA series. Compounds were evaluated over a 2-fold dilution range from 32 to 0.03 μg/mL. Stocks of the samples were prepared in 100% DMSO at […] before being diluted in isosenstitest broth. The highest concentration of DMSO present was 2%, which has been previously shown not to inhibit the growth of the microorganisms (data not shown). […] Vancomycin was used as a quality control compound.

Compound	MRSA MIC	activity against MRSA, in words
c1ccc(-c2nc3n(c2-c2ccc4c(c2)OCO4)CCS3)nc1 [compound 813]	32 µg/mL	–
c1ccc(-c2nc3ncccn3c2-c2ccc3c(c2)OCO3)nc1 [compound 815]	> 32 µg/mL	–
c1cncc(-c2nc3n(c2-c2ccc4c(c2)OCO4)CCC3)c1 [compound 816]	> 32 µg/mL	–
c1cc(-c2nc3n(c2-c2ccc4c(c2)OCO4)CCC3)ccn1 [compound 817]	> 32 µg/mL	–
c1ccc(-c2nc3n(c2-c2ccc4c(c2)OCO4)CCCC3)nc1 [compound 818]	16 µg/mL	–
COc1ccc(-c2c(-c3ccccn3)nc3n2CCC3)cc1OC [compound 820]	32 µg/mL	–
c1ccc(-c2nc3n(c2-c2ccc4c(c2)CCO4)CCC3)nc1 [compound 827]	–	ineffective
c1ccc(-c2nc3n(c2-c2ccc4c(c2)OCC4)CCC3)nc1 [compound 828]	–	ineffective
c1ccc(-c2nc3n(c2-c2ccc4cccnc4c2)CCC3)nc1 [compound 833]	–	ineffective
c1ccc(-c2nc3n(c2-c2ccc4scnc4c2)CCC3)nc1 [compound 835]	–	ineffective
Cc1nc2cc(-c3c(-c4ccccn4)nc4n3CCC4)ccc2s1 [compound 836]	–	ineffective

More lines, main results first:

MRSA MIC	Compound	activity against MRSA, in words
> 32 µg/mL	c1ccc(-c2nc3n(c2-c2ccc4sccc4c2)CCC3)cc1 [compound 834]	–
8 µg/mL	COc1ccnc(-c2nc3ccccn3c2N(C)c2ccc(F)cc2)c1 [compound 1007]	–
> 32 µg/mL	CC(C)CN(c1ccc(F)cc1)c1c(-c2nccs2)nc2ccccn12 [compound 1010]	–
> 32 µg/mL	Cc1ccc(-c2c(-c3ccccn3)nc3cc(C#N)ccn23)cc1 [compound 1013]	–
> 32 µg/mL	Cc1ccc(-c2c(-c3ccccn3)nc3cc(N4CCNCC4)ccn23)cc1 [compound 1014]	–
> 32 µg/mL	Cc1ccc(-c2c(-c3ccccn3)nc3cc(C(N)=O)ccn23)cc1 [compound 1015]	–
8 µg/mL	CC(C)CN(c1ccc(F)cc1)c1c(-c2ccccn2)nc2cc(F)ccn12 [compound 1023]	–
8 µg/mL	CC(C)CN(c1ccc(F)cc1)c1c(-c2ccccn2)nc2ccc(F)cn12 [compound 1024]	–
8 µg/mL	COc1ccc(-c2nc3ccccn3c2N(CC(C)C)c2ccc(F)cc2)nc1 [compound 1034]	–

same assay, conditions: Staphylococcus aureus, 16 h; read-out: MRSA MIC

MIC	Compound
> 32 µg/mL	COc1ccc(-c2c(-c3ccccn3)nc3n2CCC3)cc1OC [compound 820]
16 µg/mL (≈ 45.9 µM)	COc1cccn2c(N(C)c3ccc(F)cc3)c(-c3ccccn3)nc12 [compound 1001]
> 32 µg/mL	CN(c1ccc(F)cc1)c1c(-c2ccccn2)nc2c(F)cccn12 [compound 1006]

same assay, conditions: Staphylococcus aureus, UCL; read-out: MRSA MIC (UCL)

MIC	Compound
8 µg/mL (≈ 25.2 µM)	c1ccc(-c2nc3n(c2-c2csc4ccccc24)CCC3)nc1 [OSA_000832]
> 32 µg/mL	c1ccc(-c2nc3n(c2-c2ccc4cccnc4c2)CCC3)nc1 [OSA_000833]
> 32 µg/mL	c1ccc(-c2nc3n(c2-c2ccc4sccc4c2)CCC3)cc1 [OSA_000834]
32 µg/mL (≈ 101 µM)	c1ccc(-c2nc3n(c2-c2ccc4scnc4c2)CCC3)nc1 [OSA_000835]
> 32 µg/mL	Fc1ccc(Nc2c(-c3nccs3)nc3ccccn23)cc1 [OSA_001008]
> 32 µg/mL	Fc1ccc(Nc2c(-c3ccc[nH]3)nc3ccccn23)cc1 [OSA_001009]
> 32 µg/mL	CC(C)CN(c1ccc(F)cc1)c1c(-c2nccs2)nc2ccccn12 [OSA_001010]
> 32 µg/mL	CN1CCN(c2ccc(-c3c(-c4ccccn4)nc4ccccn34)cc2)CC1 [OSA_001012]
> 32 µg/mL	Cc1ccc(-c2c(-c3ccccn3)nc3cc(C#N)ccn23)cc1 [OSA_001013]
> 32 µg/mL	Cc1ccc(-c2c(-c3ccccn3)nc3cc(N4CCNCC4)ccn23)cc1 [OSA_001014]
> 32 µg/mL	Cc1ccc(-c2c(-c3ccccn3)nc3cc(C(N)=O)ccn23)cc1 [OSA_001015]
> 32 µg/mL	N#Cc1ccc(C(=O)Nc2c(-c3ccccn3)nc3ccccn23)cc1 [OSA_001016]

same assay, conditions: Staphylococcus aureus; read-out: MRSA MIC

Compound	MIC
COc1ccc(-c2c(-c3ccccn3)nc3n2CCC3)cc1OC [compound 820]	> 32 µg/mL
c1ccc(-c2nc3n(c2-c2ccc4c(c2)CCO4)CCC3)nc1 [compound 827]	32 µg/mL (≈ 105 µM)
c1ccc(-c2nc3n(c2-c2ccc4c(c2)OCC4)CCC3)nc1 [compound 828]	32 µg/mL (≈ 105 µM)

Next, values leading:

MIC	Compound
> 32 µg/mL	c1ccc(-c2nc3n(c2-c2ccc4cccnc4c2)CCC3)nc1 [compound 833]
32 µg/mL (≈ 101 µM)	c1ccc(-c2nc3n(c2-c2ccc4scnc4c2)CCC3)nc1 [compound 835]
32 µg/mL (≈ 96.3 µM)	Cc1nc2cc(-c3c(-c4ccccn4)nc4n3CCC4)ccc2s1 [compound 836]

tested on: S. aureus ATCC 25923 (methicillin-susceptible); experiment: In vitro antibacterial activity, MIC (UCL), MSSA; assay type: cell-based, Staphylococcus aureus; conditions: not given
Experimental: as §1

MSSA MIC	Compound
8 µg/mL	COc1ccnc(-c2nc3ccccn3c2N(C)c2ccc(F)cc2)c1 [compound 1007]
> 32 µg/mL	CC(C)CN(c1ccc(F)cc1)c1c(-c2nccs2)nc2ccccn12 [compound 1010]
> 32 µg/mL	Cc1ccc(-c2c(-c3ccccn3)nc3cc(C#N)ccn23)cc1 [compound 1013]
> 32 µg/mL	Cc1ccc(-c2c(-c3ccccn3)nc3cc(N4CCNCC4)ccn23)cc1 [compound 1014]
> 32 µg/mL	Cc1ccc(-c2c(-c3ccccn3)nc3cc(C(N)=O)ccn23)cc1 [compound 1015]
4 µg/mL	CC(C)CN(c1ccc(F)cc1)c1c(-c2ccccn2)nc2cc(F)ccn12 [compound 1023]
8 µg/mL	CC(C)CN(c1ccc(F)cc1)c1c(-c2ccccn2)nc2ccc(F)cn12 [compound 1024]

same assay, conditions: Staphylococcus aureus, 16 h; read-out: MSSA MIC

MIC	Compound
16 µg/mL (≈ 45.9 µM)	COc1cccn2c(N(C)c3ccc(F)cc3)c(-c3ccccn3)nc12 [compound 1001]
> 32 µg/mL	CN(c1ccc(F)cc1)c1c(-c2ccccn2)nc2c(F)cccn12 [compound 1006]

same assay, conditions: Staphylococcus aureus; read-out: MSSA MIC

MIC	Compound
> 32 µg/mL	COc1ccc(-c2c(-c3ccccn3)nc3n2CCC3)cc1OC [compound 820]

same assay, conditions: Staphylococcus aureus; read-out: MSSA MIC (UCL)

MIC	Compound
> 32 µg/mL	Fc1ccc(Nc2c(-c3nccs3)nc3ccccn23)cc1 [OSA_001008]
> 32 µg/mL	Fc1ccc(Nc2c(-c3ccc[nH]3)nc3ccccn23)cc1 [OSA_001009]
> 32 µg/mL	CC(C)CN(c1ccc(F)cc1)c1c(-c2nccs2)nc2ccccn12 [OSA_001010]
> 32 µg/mL	CN1CCN(c2ccc(-c3c(-c4ccccn4)nc4ccccn34)cc2)CC1 [OSA_001012]
> 32 µg/mL	Cc1ccc(-c2c(-c3ccccn3)nc3cc(C#N)ccn23)cc1 [OSA_001013]
> 32 µg/mL	Cc1ccc(-c2c(-c3ccccn3)nc3cc(N4CCNCC4)ccn23)cc1 [OSA_001014]
> 32 µg/mL	Cc1ccc(-c2c(-c3ccccn3)nc3cc(C(N)=O)ccn23)cc1 [OSA_001015]
> 32 µg/mL	N#Cc1ccc(C(=O)Nc2c(-c3ccccn3)nc3ccccn23)cc1 [OSA_001016]
